Source: ChEMBL document CHEMBL1142460, “2,4(5)-Diarylimidazoles: synthesis and biological evaluation of a new class of sodium channel blockers against hNa(v)1.2” (Bioorg Med Chem Lett, 2008)

Tests used:
[1] = molecular target: Sodium channel protein type 2 subunit alpha (Homo sapiens) (UniProt Q99250); assay: Inhibition of Nav1.2 channel in HEK cells at 10 uM by patch clamp technique; format: cell-based; parameters: scale not given: the % may be the effect or the level left; conditions: HEK293
[2] = molecular target: Sodium channel protein type 2 subunit alpha (Homo sapiens) (UniProt Q99250); assay: Inhibition of Nav1.2 channel in HEK cells at 100 uM by patch clamp technique; format: cell-based; parameters: scale not given: the % may be the effect or the level left; conditions: HEK293

Sodium channel protein type 2 subunit alpha (Homo sapiens), sequence (Q99250 whole entry, looked up): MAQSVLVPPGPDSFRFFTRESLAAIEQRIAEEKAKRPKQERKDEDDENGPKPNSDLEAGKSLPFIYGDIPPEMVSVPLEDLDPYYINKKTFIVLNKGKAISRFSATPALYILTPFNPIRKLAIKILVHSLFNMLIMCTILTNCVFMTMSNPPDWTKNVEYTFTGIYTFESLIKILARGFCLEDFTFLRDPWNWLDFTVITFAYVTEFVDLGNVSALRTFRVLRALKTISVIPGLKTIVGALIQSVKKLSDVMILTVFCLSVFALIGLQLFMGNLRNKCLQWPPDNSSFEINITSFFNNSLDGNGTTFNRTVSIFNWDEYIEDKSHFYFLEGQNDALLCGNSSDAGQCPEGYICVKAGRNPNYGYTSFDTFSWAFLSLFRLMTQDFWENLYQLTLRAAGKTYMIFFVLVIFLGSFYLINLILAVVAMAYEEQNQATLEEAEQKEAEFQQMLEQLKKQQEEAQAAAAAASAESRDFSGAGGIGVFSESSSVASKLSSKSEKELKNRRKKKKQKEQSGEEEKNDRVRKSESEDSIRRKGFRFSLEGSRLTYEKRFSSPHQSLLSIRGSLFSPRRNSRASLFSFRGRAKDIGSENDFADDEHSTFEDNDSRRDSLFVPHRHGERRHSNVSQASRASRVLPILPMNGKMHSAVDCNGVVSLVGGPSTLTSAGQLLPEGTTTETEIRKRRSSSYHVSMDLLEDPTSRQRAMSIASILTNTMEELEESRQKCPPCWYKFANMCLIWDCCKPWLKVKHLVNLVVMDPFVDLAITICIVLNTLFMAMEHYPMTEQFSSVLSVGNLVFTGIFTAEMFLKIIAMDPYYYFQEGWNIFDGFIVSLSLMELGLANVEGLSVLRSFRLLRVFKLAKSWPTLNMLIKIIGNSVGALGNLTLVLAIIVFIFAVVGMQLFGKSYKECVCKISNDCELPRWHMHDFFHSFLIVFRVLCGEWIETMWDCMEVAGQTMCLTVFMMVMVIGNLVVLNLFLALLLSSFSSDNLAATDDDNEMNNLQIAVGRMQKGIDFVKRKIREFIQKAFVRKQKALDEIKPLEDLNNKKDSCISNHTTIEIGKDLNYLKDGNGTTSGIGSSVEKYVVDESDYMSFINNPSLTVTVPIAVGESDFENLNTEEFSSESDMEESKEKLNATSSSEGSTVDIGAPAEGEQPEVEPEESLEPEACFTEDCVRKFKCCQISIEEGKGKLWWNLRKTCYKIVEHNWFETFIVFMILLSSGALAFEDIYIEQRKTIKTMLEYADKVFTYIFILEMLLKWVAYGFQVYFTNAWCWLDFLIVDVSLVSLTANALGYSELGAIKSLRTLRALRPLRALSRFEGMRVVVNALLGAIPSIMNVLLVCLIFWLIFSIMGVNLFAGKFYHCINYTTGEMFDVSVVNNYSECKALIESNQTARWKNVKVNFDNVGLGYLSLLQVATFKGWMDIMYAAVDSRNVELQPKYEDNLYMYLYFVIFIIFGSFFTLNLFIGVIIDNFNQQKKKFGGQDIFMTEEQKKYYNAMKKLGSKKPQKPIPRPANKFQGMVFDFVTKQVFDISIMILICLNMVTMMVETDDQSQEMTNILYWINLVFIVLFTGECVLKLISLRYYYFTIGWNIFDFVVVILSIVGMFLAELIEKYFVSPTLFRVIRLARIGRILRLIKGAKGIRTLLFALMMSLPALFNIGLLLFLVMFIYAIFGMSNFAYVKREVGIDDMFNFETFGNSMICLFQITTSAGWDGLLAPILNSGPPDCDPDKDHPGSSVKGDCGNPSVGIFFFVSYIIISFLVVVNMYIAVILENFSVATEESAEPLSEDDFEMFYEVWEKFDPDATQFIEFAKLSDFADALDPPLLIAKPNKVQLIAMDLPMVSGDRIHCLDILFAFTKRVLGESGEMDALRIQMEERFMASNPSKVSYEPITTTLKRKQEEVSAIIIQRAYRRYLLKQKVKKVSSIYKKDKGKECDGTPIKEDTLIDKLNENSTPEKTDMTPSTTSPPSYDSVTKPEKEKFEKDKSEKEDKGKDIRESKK

Activity [1] [%] | Activity [2] [%] | Compound
4.7 | 22.5 | c1ccc(-c2c[nH]c(-c3cccnc3)n2)cc1
8 | 40.7 | c1ccc(-c2c[nH]c(-c3ccncc3)n2)cc1
7.8 | 80.5 | c1ccc(-c2c[nH]c(-c3ccccc3)n2)cc1

The next lines start with the compound.

Compound | Activity [1] [%] | Activity [2] [%]
c1ccc(-c2c[nH]c(C3CCCCC3)n2)cc1 | 26.7 | 91.5
O=C1NC(=O)C(c2ccccc2)(c2ccccc2)N1 | 10.6 | 21.2
c1ccc(-c2c[nH]c(-c3ccoc3)n2)cc1 | 11.9 | 27.3
c1ccc(-c2c[nH]c(-c3ccco3)n2)cc1 | 2.7 | 37.7
c1ccc(-c2c[nH]c(-c3ccsc3)n2)cc1 | 5.1 | 70.9
c1ccc(-c2c[nH]c(-c3cc4ccccc4o3)n2)cc1 | 37.7 | 72.4
Nc1nnc(-c2cccc(Cl)c2Cl)c(N)n1 | 12.1 | 35.1
